From ChEMBL document CHEMBL4715815, “Design, synthesis and biological evaluation of 7H-pyrrolo[2,3-d]pyrimidin-4-amine derivatives as selective Btk inhibitors with improved pharmacokinetic properties for the treatment of rheumatoid arthritis” (Eur J Med Chem, 2018)
Activity calls are given as the source filed them. No cut-off for these calls is given here.

Experiments:
[1] = target: T1, Tyrosine-protein kinase BTK (Homo sapiens, UniProt Q06187); assay: Inhibition of BTK in human U2932 cells assessed as reduction in PLCgamma2 Y1217 phosphorylation at 0.03 to 10 uM incubated for 1 hr by Western blot analysis; type: cell-based; conditions: dose 0.03-10 µM
T1 sequence (Q06187 whole entry): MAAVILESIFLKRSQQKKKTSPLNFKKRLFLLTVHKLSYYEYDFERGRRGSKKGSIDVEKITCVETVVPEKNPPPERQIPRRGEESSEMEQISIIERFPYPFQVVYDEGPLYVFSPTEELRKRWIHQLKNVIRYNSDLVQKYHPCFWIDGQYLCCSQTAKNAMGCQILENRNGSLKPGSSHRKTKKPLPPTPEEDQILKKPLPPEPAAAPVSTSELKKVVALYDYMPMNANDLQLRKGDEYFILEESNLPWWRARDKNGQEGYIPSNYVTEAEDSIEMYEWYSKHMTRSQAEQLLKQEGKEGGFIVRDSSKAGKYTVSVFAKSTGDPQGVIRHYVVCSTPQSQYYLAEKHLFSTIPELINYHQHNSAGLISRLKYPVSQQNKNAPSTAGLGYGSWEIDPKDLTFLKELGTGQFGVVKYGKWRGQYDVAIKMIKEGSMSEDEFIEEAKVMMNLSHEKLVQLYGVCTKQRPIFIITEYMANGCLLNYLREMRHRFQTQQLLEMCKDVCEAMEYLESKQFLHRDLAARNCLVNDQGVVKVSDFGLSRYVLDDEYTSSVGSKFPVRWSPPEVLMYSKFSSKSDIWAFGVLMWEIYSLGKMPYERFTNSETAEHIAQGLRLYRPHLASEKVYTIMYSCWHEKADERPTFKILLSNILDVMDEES

[2] = target: Receptor-type tyrosine-protein kinase FLT3 (Homo sapiens, UniProt P36888); assay: Inhibition of FLT3 (unknown origin)
[3] = Cmax in Sprague-Dawley rat at 3 mg/kg, iv measured up to 24 hrs by LC-MS/MS analysis; type: ADME, organism-based; set-up: route intravenous, dose 3 mg/kg, time <=24; conditions: in vivo
[4] = target: Dual specificity mitogen-activated protein kinase kinase 2 (Homo sapiens, UniProt P36507); assay: Inhibition of MEK2 (unknown origin)
[5] = Toxicity in DBA/1J mouse assessed as effect on body weight at 20 mg/kg, po administered for 30 days and measured on day 30; type: organism-based; conditions: in vivo, 720 h, time 30 day
[6] = Inhibition of GSK3alpha/GSK3beta (unknown origin); set-up: species or system Homo sapiens
[7] = target: Tyrosine-protein kinase JAK2 (Homo sapiens, UniProt O60674); assay: Inhibition of recombinant human JAK2 using Ulight-CAGAGAIETDKEYYTVKD as substrate incubate for 60 mins by LANCE assay
[8] = target: T1, Tyrosine-protein kinase BTK; assay: Inhibition of BTK (unknown origin) by caliper mobility shift assay
[9] = target: Calcium/calmodulin-dependent protein kinase kinase 1 (Homo sapiens, UniProt Q8N5S9); assay: Inhibition of CAMKK1 (unknown origin)
[10] = Half life in Sprague-Dawley rat at 3 mg/kg, iv measured up to 24 hrs by LC-MS/MS analysis; type: ADME, organism-based; conditions: in vivo
[11] = target: Dual specificity mitogen-activated protein kinase kinase 1 (Homo sapiens, UniProt Q02750); assay: Inhibition of recombinant human MEK1 using inactivated ERK2 as substrate incubate for 60 mins by LANCE assay
[12] = Metabolic stability in monkey liver microsomes assessed as half life at 100 uM/L measured upto 90 mins by LC-MS/MS analysis; type: ADME, Macaca mulatta, Microsome; conditions: rhesus monkey
[13] = Clearance in Sprague-Dawley rat at 3 mg/kg, po measured up to 24 hrs by LC-MS/MS analysis; type: ADME, organism-based; conditions: in vivo
[14] = target: Calcium/calmodulin-dependent protein kinase type II subunit beta (Homo sapiens, UniProt Q13554); assay: Inhibition of CAMK2 (unknown origin)
[15] = target: T1, Tyrosine-protein kinase BTK
Description: Reversible inhibition of BTK (unknown origin) assessed as association rate constant by caliper mobility shift assay

[16] = target: Proto-oncogene tyrosine-protein kinase receptor Ret (Homo sapiens, UniProt P07949); assay: Inhibition of RET (unknown origin)
Sequence of Proto-oncogene tyrosine-protein kinase receptor Ret (P07949 whole entry): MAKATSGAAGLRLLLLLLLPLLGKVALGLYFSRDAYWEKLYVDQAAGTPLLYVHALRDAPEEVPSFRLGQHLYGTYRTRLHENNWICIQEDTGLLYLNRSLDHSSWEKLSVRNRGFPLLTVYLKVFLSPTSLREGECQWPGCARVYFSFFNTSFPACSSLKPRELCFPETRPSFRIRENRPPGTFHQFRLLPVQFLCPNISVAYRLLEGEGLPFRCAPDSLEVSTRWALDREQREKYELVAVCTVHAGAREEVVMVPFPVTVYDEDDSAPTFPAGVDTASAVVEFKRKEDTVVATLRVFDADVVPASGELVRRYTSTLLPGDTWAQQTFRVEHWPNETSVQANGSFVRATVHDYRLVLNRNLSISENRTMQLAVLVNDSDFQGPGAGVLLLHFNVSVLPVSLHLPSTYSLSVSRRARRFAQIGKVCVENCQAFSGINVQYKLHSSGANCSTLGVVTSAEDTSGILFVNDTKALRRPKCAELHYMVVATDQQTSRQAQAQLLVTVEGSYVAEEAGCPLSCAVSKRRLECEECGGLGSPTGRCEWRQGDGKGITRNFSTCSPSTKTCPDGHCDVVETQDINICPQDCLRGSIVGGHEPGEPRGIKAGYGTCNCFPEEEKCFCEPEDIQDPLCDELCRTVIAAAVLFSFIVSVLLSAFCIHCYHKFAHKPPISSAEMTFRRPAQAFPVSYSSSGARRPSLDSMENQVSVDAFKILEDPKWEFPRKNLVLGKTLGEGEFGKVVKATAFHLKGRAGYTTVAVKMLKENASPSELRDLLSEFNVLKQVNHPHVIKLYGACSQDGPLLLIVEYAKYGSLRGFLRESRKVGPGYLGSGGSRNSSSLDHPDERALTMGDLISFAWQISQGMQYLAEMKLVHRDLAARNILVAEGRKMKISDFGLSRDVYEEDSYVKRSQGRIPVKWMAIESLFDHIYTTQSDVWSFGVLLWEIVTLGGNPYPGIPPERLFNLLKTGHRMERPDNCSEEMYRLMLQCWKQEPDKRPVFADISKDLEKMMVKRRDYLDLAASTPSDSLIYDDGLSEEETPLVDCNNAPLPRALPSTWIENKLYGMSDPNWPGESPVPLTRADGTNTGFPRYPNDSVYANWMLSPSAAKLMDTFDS

[17] = target: Ribosomal protein S6 kinase alpha-3 (Homo sapiens, UniProt P51812); assay: Inhibition of recombinant human RSK2 using Histone H3 full length as substrate incubate for 10 mins by LANCE assay
[18] = target: Dual specificity mitogen-activated protein kinase kinase 7 (Homo sapiens, UniProt O14733); assay: Inhibition of MKK7beta (unknown origin)
[19] = Metabolic stability in dog liver microsomes assessed as intrinsic clearance at 100 uM/L measured upto 90 mins by LC-MS/MS analysis; type: ADME, Canis lupus familiaris, Microsome; conditions: 1.5 h
[20] = target: Serine/threonine-protein kinase mTOR (Homo sapiens, UniProt P42345); assay: Inhibition of mTOR (unknown origin)
[21] = target: Tyrosine-protein kinase JAK3 (Homo sapiens, UniProt P52333); assay: Inhibition of recombinant human JAK3 using Ulight-CAGAGAIETDKEYYTVKD as substrate incubate for 60 mins by LANCE assay
HEK293 = assay: Cytotoxicity against human HEK293 cells assessed as reduction in cell viability incubated for 72 hrs by MTT assay; type: ADME, cell-based; conditions: HEK293, 72 h
[22] = Toxicity in BALB/c mouse assessed as effect on heart at 2 g/kg, po measured after 7 days of administration by histopathological analysis; conditions: in vivo, 168 h
[23] = Inhibition of PKC (unknown origin); set-up: species or system Homo sapiens
[24] = target: Calcium/calmodulin-dependent protein kinase type 1 (Homo sapiens, UniProt Q14012); assay: Inhibition of CAMK1 (unknown origin)
[25] = target: T1, Tyrosine-protein kinase BTK; assay: Inhibition of BTK in human Daudi cells assessed as reduction in BTK Y223 phosphorylation incubated for 1 hr by Western blot analysis; type: cell-based; conditions: dose 0.03-10 µM
[26] = target: Tyrosine-protein kinase Lyn (Homo sapiens, UniProt P07948); assay: Inhibition of recombinant human LYN using biotinyl-beta Abeta-Abeta AKVEKIGEGTYGVVYK as substrate incubate for 120 mins by LANCE assay
THP-1 = assay: Cytotoxicity against human THP-1 cells assessed as reduction in cell viability incubated for 72 hrs by MTT assay; type: ADME, cell-based; conditions: THP-1, 72 h
[27] = target: Receptor tyrosine-protein kinase erbB-2 (Homo sapiens, UniProt P04626); assay: Inhibition of ErBB2 (unknown origin)
[28] = target: Dual specificity mitogen-activated protein kinase kinase 6 (Homo sapiens, UniProt P52564); assay: Inhibition of MKK6 (unknown origin)
[29] = target: Tyrosine-protein kinase JAK1 (Homo sapiens, UniProt P23458); assay: Inhibition of JAK1 (unknown origin)
Sequence of Tyrosine-protein kinase JAK1 (P23458 whole entry): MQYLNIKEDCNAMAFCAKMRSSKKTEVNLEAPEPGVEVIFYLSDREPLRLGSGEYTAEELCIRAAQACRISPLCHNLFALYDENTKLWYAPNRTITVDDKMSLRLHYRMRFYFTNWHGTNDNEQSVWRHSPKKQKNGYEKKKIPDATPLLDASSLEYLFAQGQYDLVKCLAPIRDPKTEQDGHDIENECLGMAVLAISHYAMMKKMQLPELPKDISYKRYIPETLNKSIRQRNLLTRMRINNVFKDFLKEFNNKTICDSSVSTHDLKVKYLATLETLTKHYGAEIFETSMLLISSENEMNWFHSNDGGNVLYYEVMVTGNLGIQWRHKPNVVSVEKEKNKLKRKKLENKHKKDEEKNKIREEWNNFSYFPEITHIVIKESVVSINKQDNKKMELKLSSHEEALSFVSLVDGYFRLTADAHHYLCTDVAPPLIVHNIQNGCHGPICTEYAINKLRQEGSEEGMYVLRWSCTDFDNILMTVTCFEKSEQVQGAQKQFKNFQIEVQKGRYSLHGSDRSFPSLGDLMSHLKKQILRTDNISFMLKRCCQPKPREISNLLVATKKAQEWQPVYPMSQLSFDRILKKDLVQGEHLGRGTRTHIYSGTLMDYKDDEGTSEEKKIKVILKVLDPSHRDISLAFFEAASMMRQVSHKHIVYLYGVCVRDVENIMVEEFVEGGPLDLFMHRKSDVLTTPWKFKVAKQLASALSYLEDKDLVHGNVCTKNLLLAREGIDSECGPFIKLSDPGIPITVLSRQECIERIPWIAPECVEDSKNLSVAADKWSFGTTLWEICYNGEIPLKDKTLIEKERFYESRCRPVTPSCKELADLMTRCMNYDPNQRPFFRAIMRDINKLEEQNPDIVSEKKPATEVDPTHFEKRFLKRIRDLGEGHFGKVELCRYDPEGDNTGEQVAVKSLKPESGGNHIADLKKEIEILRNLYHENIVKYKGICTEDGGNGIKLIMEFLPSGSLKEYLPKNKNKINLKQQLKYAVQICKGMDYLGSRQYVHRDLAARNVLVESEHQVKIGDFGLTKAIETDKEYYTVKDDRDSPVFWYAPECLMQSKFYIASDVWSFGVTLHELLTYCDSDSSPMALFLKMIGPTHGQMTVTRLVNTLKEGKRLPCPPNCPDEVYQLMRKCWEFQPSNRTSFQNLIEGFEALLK

[30] = Toxicity in BALB/c mouse assessed as effect on lung at 2 g/kg, po measured after 7 days of administration by histopathological analysis; conditions: in vivo, 168 h
[31] = target: Mitogen-activated protein kinase kinase kinase 7 (Homo sapiens, UniProt O43318); assay: Inhibition of recombinant human TAK1 using Ulight-FLGFTYVAP as substrate incubate for 90 mins by LANCE assay
Sequence of Mitogen-activated protein kinase kinase kinase 7 (O43318 whole entry): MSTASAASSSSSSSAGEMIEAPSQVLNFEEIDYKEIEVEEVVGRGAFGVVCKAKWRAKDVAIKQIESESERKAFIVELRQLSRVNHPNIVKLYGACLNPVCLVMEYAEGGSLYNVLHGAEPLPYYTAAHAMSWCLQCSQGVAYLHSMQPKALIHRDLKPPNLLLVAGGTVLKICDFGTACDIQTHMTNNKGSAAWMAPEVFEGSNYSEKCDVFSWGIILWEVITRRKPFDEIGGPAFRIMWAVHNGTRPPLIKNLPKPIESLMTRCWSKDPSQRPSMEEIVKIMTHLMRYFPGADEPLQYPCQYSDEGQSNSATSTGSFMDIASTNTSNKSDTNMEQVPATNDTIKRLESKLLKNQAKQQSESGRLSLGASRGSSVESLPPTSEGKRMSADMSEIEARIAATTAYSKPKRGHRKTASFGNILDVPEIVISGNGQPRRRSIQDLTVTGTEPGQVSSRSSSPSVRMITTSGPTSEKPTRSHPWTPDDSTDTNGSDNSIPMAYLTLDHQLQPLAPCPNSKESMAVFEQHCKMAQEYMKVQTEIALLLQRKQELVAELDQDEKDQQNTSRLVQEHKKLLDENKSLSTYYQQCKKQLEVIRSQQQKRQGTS

[32] = Metabolic stability in human liver microsomes assessed as intrinsic clearance at 100 uM/L measured upto 90 mins by LC-MS/MS analysis; type: ADME, Microsome; conditions: 1.5 h
[33] = target: High affinity nerve growth factor receptor (Homo sapiens, UniProt P04629); assay: Inhibition of recombinant human TRKa using Ulight-Poly GAT[EAY(1:1:1)]n as substrate incubate for 10 mins by LANCE assay
[34] = target: Receptor tyrosine-protein kinase erbB-4 (Homo sapiens, UniProt Q15303); assay: Inhibition of ErBB4 (unknown origin)
Sequence of Receptor tyrosine-protein kinase erbB-4 (Q15303 whole entry): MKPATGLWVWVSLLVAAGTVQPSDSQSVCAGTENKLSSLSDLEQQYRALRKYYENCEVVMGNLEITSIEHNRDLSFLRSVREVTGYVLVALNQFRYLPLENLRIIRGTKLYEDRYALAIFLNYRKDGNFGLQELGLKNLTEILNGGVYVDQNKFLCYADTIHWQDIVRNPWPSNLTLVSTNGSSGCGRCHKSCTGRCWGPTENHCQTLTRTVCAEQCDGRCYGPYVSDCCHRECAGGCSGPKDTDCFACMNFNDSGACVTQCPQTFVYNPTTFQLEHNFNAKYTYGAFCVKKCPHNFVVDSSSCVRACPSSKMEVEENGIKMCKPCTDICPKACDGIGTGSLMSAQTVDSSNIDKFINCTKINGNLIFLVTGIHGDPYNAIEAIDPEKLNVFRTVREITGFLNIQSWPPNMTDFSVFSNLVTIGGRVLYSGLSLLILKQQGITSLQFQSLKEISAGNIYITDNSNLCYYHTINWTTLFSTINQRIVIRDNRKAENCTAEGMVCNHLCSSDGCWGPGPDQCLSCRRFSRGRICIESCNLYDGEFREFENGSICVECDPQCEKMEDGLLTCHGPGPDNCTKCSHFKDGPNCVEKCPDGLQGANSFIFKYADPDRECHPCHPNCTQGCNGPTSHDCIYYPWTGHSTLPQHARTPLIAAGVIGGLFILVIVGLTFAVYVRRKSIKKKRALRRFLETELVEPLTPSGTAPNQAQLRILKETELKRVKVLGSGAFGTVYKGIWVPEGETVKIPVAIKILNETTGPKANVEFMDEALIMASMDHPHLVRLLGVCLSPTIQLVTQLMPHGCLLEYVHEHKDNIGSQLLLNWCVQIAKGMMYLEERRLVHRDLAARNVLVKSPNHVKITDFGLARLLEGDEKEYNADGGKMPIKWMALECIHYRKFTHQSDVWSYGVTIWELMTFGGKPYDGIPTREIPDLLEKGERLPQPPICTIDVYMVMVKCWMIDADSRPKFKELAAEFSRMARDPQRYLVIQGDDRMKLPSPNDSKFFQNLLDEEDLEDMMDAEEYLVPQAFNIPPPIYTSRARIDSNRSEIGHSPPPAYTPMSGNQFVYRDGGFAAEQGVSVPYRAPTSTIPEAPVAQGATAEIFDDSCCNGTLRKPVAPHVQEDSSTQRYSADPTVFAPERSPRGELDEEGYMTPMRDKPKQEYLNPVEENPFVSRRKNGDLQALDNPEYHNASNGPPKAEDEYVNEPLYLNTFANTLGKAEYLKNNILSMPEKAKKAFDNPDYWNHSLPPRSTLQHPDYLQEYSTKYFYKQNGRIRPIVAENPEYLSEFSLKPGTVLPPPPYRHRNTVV

[35] = target: T1, Tyrosine-protein kinase BTK; assay: Inhibition of BTK in human Raji cells assessed as reduction in BTK Y223 phosphorylation incubated for 1 hr by Western blot analysis; type: cell-based; conditions: dose 0.03-10 µM
[36] = target: T1, Tyrosine-protein kinase BTK; assay: Inhibition of BTK in human U2932 cells assessed as reduction in BTK Y223 phosphorylation incubated for 1 hr by Western blot analysis; type: cell-based; conditions: dose 0.03-10 µM
[37] = target: Dual specificity mitogen-activated protein kinase kinase 4 (Homo sapiens, UniProt P45985); assay: Inhibition of MKK4 (unknown origin)
Mus musculus = assay: Antiarthritic activity in DBA/1J mouse model of collagen-induced arthritis assessed as reduction in edema formation at 20 mg/kg, po administered for 30 days and measured on day 30; type: functional, organism-based; conditions: time 30.0 day
[38] = Clearance in Sprague-Dawley rat at 3 mg/kg, iv measured up to 24 hrs by LC-MS/MS analysis; type: ADME, organism-based; conditions: in vivo
[39] = target: Tyrosine-protein kinase FRK (Homo sapiens, UniProt P42685); assay: Inhibition of FRK (unknown origin)

Q: What does the source list for `C=CC(=O)N1CCC(Cn2cc(-c3ccc4c(c3)OCO4)c3c(N)ncnc32)CC1`?
A: inhibition [1]: Active; IC50 [2]: > 10 µM; Cmax [3]: 3130 ng/mL; IC50 [4]: > 10 µM; Activity [5]: Non-Toxic; IC50 [6]: > 10 µM; IC50 [7]: > 10 µM; IC50 [8]: 0.0217 µM; IC50 [9]: > 10 µM; t1/2 [10]: 5.18 h; IC50 [11]: > 10 µM; half-life at 100 µM [12]: 2.82 h; CL/F [13]: 45.8 mL/min/kg; IC50 [14]: > 10 µM; Ka [15]: 9630 M⁻¹ s⁻¹; IC50 [16]: 0.64 µM; IC50 [17]: > 10 µM; IC50 [18]: > 10 µM; CLH [19]: 4.4 µL/min/mg; IC50 [20]: > 10 µM; IC50 [21]: > 10 µM; IC50 (HEK293): 34.2 µM; Activity [22]: Non-Toxic; IC50 [23]: > 10 µM; IC50 [24]: > 10 µM; inhibition [25]: Dose-dependent effect; IC50 [26]: 0.259 µM; IC50 (THP-1): 38.9 µM; IC50 [27]: > 10 µM; IC50 [28]: > 10 µM; IC50 [29]: > 10 µM; Activity [30]: Non-Toxic; IC50 [31]: > 10 µM; CLH [32]: 4.2 µL/min/mg; IC50 [33]: > 10 µM; IC50 [34]: > 10 µM; inhibition [35]: Dose-dependent effect; inhibition [36]: Dose-dependent effect; IC50 [37]: > 10 µM; Activity (Mus musculus): Active; CL [38]: 137 mL/min/kg; IC50 [39]: 1.13 µM
